System: diarrhea-predominant IBS subjects
Assay: Study S241.3.009: weekly diary questions on adequate relief
Type: in vivo, human
Conditions: 2 mg TID, ITT; for Number of months a subject was a responder during Months 1 to 3: IBS symptoms, One month / Number of months a subject was a responder during Months 1 to 3: IBS symptoms, Three months / Number of months a subject was a responder during Months 1 to 3: IBS symptoms, Two months / Number of months a subject was a responder during Months 1 to 3: IBS symptoms, Zero months / Number of months a subject was a responder during Months 1 to 3: Abdominal pain/discomfort, One month / Number of months a subject was a responder during Months 1 to 3: Abdominal pain/discomfort, Three months / Number of months a subject was a responder during Months 1 to 3: Abdominal pain/discomfort, Two months / Number of months a subject was a responder during Months 1 to 3: Abdominal pain/discomfort, Zero months / Number of months a subject was a responder during Months 1 to 3: Abnormal bowel habits, One month / Number of months a subject was a responder during Months 1 to 3: Abnormal bowel habits, Three months / Number of months a subject was a responder during Months 1 to 3: Abnormal bowel habits, Two months / Number of months a subject was a responder during Months 1 to 3: Abnormal bowel habits, Zero months / Responder rate, adequate relief of IBS symptoms / Responder rate, adequate relief of abdominal pain/discomfort / Responder rate, adequate relief of abnormal bowel habits: monthly LOCF imputation; for Number of subjects who were responders during the 26-week treatment period: Adequate relief of IBS symptoms / Number of subjects who were responders during the 26-week treatment period: Adequate relief of abdominal pain/discomfort / Number of subjects who were responders during the 26-week treatment period: Adequate relief of abnormal bowel habits: observed case
Experimental: Study S241.3.009 was a Phase III, a double-blind, placebo-controlled, randomized, multinational study to investigate the safety and efficacy of 2 mg TID of cilansetron over 26 weeks in diarrhea-predominant IBS subjects. The study was conducted in 146 multinational study centers. A total of 1307 subjects consented to participate, and 806 subjects were randomized. A total of 792 subjects were analyzed for efficacy and 799 subjects were analyzed for safety. Diagnosis and main criteria for inclusion were IBS subjects satisfying the Rome I criteria (1992); the diarrhea-predominant sub-population of the Rome II criteria; and a minimum abdominal pain/discomfort, stool frequency and consistency determined during the run-in period. Subjects were treated with cilansetron 2 mg tablets given orally TID or matching placebo tablets given orally TID for 26 weeks.
The primary efficacy parameter was the overall response rate for IBS symptoms, based on the weekly question concerning adequate relief of IBS symptoms (abdominal pain/discomfort, abnormal bowel habits) over the 26 weeks period. A responder was a subject who responded “yes” at least 50% of the time during his/her treatment period, with minimum treatment duration of four weeks. The two main secondary efficacy parameters were overall responder rate based on the weekly question on adequate relief of abdominal pain/discomfort and abnormal bowel habits during the 26-week treatment period. The onset of action of cilansetron was also examined using daily diary data (stool frequency, and ratings of urgency and severity) during the initial 8 weeks of trial participation. An additional key secondary efficacy parameter was the number of months (one month equals four weeks) up to six months (24-weeks) that a subject was a responder for IBS symptoms, where a responder was defined as a subject who answered the weekly question with “yes” at least twice for that month. The responder rate for the weekly diary questions on adequate relief at each month and all months, the adequate relief rate, the number of subjects with adequate relief by week, daily diary questions, IBS-QOL scores, and the interruption of activities were also assessed. Safety was evaluated by physical examination, ECG, vital signs, laboratory evaluations, concomitant medications, and AEs.
Studies S24 1.3.OO6, S24 1.3.0 1 1, and S24 1.3.009 used the following efficacy measurements: • The subjects answered the following three questions with “yes” or “no” using a phone diary at the end of each week: • a) During the last week, did you experience adequate relief of your IBS symptoms, such as abdominal pain, abdominal discomfort, abnormal bowel habits? • b) During the last week, did you experience adequate relief of your abdominal pain and/or discomfort? • c) During the last week, did you experience adequate relief of your abnormal bowel habits? • The subjects rated the following symptoms using the phone diary at the end of each day: • abdominal pain/discomfort (five-point scale); • stool consistency (seven-point Bristol Stool Scale); • stool frequency (number of bowel movements each day); • urgency (five-point scale); • straining (yes or no); • feeling of incomplete defecation (yes or no); • bloating or feeling of abdominal distension (five-point scale). • In Studies S241 A006 and S241.3.009, subjects completed the IBS-QOL Survey at Baseline (Day 1) and at the end of treatment. In Study S24 1.3.0 1 1, subjects completed the IBS-QOL Survey at Baseline (Day 1), at the end of the three-month treatment period, and at the end of rerandomized treatment.
In all three pivotal efficacy studies, the primary and main secondary efficacy parameters were based on the weekly diary questions on adequate relief and included the following: • 1. Number of months (one month equals four weeks) that a subject was a responder for the weekly diary questions on adequate relief. […]

[1] = Duration of IBS: >24 months to ≦48 months
[2] = Duration of IBS: >48 months to ≦120 months

## Cc1nccn1C[C@H]1CCc2c(c3cccc4c3n2CCC4)C1=O [Cilansetron, (R)-(−)-4,5,6,8,9,10-hexahydro-10-[(2-methyl-1H-imidazol-1-yl)methyl]-11H-pyrido-[3,2,1-jk]-carbazol-11-one]
[1]
  Number of months a subject was a responder during Months 1 to 3: IBS symptoms, One month: 9 (9) n (%)
  Number of months a subject was a responder during Months 1 to 3: IBS symptoms, Three months: 35 (36) n (%)
  Number of months a subject was a responder during Months 1 to 3: IBS symptoms, Two months: 21 (22) n (%)
  Number of months a subject was a responder during Months 1 to 3: IBS symptoms, Zero months: 31 (32) n (%)
  Number of subjects who were responders during the 26-week treatment period: Adequate relief of IBS symptoms: 56 (58) n (%)
  Number of subjects who were responders during the 26-week treatment period: Adequate relief of abdominal pain/discomfort: 60 (63) n (%)
  Number of subjects who were responders during the 26-week treatment period: Adequate relief of abnormal bowel habits: 63 (66) n (%)
[2]
  Number of months a subject was a responder during Months 1 to 3: Abdominal pain/discomfort, One month: 21 (16) n (%)
  Number of months a subject was a responder during Months 1 to 3: Abdominal pain/discomfort, Three months: 45 (34) n (%)
  Number of months a subject was a responder during Months 1 to 3: Abdominal pain/discomfort, Two months: 23 (18) n (%)
  Number of months a subject was a responder during Months 1 to 3: Abdominal pain/discomfort, Zero months: 42 (32) n (%)
  Number of months a subject was a responder during Months 1 to 3: Abnormal bowel habits, One month: 19 (15) n (%)
  Number of months a subject was a responder during Months 1 to 3: Abnormal bowel habits, Three months: 51 (39) n (%)
  Number of months a subject was a responder during Months 1 to 3: Abnormal bowel habits, Two months: 26 (20) n (%)
  Number of months a subject was a responder during Months 1 to 3: Abnormal bowel habits, Zero months: 35 (27) n (%)
  Number of months a subject was a responder during Months 1 to 3: IBS symptoms, One month: 16 (12) n (%)
  Number of months a subject was a responder during Months 1 to 3: IBS symptoms, Three months: 46 (35) n (%)
  Number of months a subject was a responder during Months 1 to 3: IBS symptoms, Two months: 28 (21) n (%)
  Number of months a subject was a responder during Months 1 to 3: IBS symptoms, Zero months: 41 (31) n (%)
  Number of subjects who were responders during the 26-week treatment period: Adequate relief of IBS symptoms: 72 (55) n (%)
  Number of subjects who were responders during the 26-week treatment period: Adequate relief of abdominal pain/discomfort: 68 (52) n (%)
  Number of subjects who were responders during the 26-week treatment period: Adequate relief of abnormal bowel habits: 79 (60) n (%)
Duration of IBS: >120 months
  Number of months a subject was a responder during Months 1 to 3: Abdominal pain/discomfort, One month: 15 (21) n (%)
  Number of months a subject was a responder during Months 1 to 3: Abdominal pain/discomfort, Three months: 22 (31) n (%)
  Number of months a subject was a responder during Months 1 to 3: Abdominal pain/discomfort, Two months: 15 (21) n (%)
  Number of months a subject was a responder during Months 1 to 3: Abdominal pain/discomfort, Zero months: 20 (28) n (%)
  Number of months a subject was a responder during Months 1 to 3: Abnormal bowel habits, One month: 10 (14) n (%)
  Number of months a subject was a responder during Months 1 to 3: Abnormal bowel habits, Three months: 27 (38) n (%)
  Number of months a subject was a responder during Months 1 to 3: Abnormal bowel habits, Two months: 14 (19) n (%)
  Number of months a subject was a responder during Months 1 to 3: Abnormal bowel habits, Zero months: 21 (29) n (%)
  Number of months a subject was a responder during Months 1 to 3: IBS symptoms, One month: 14 (19) n (%)
  Number of months a subject was a responder during Months 1 to 3: IBS symptoms, Three months: 23 (32) n (%)
  Number of months a subject was a responder during Months 1 to 3: IBS symptoms, Two months: 15 (21) n (%)
  Number of months a subject was a responder during Months 1 to 3: IBS symptoms, Zero months: 20 (28) n (%)
  Number of subjects who were responders during the 26-week treatment period: Adequate relief of IBS symptoms: 40 (56) n (%)
  Number of subjects who were responders during the 26-week treatment period: Adequate relief of abdominal pain/discomfort: 41 (57) n (%)
  Number of subjects who were responders during the 26-week treatment period: Adequate relief of abnormal bowel habits: 42 (58) n (%)
Duration of IBS: ≦24 months
  Number of months a subject was a responder during Months 1 to 3: Abdominal pain/discomfort, One month: 11 (11) n (%)
  Number of months a subject was a responder during Months 1 to 3: Abdominal pain/discomfort, Three months: 55 (57) n (%)
  Number of months a subject was a responder during Months 1 to 3: Abdominal pain/discomfort, Two months: 13 (14) n (%)
  Number of months a subject was a responder during Months 1 to 3: Abdominal pain/discomfort, Zero months: 17 (18) n (%)
  Number of months a subject was a responder during Months 1 to 3: Abnormal bowel habits, One month: 9 (9) n (%)
  Number of months a subject was a responder during Months 1 to 3: Abnormal bowel habits, Three months: 51 (53) n (%)
  Number of months a subject was a responder during Months 1 to 3: Abnormal bowel habits, Two months: 18 (19) n (%)
  Number of months a subject was a responder during Months 1 to 3: Abnormal bowel habits, Zero months: 18 (19) n (%)
  Number of months a subject was a responder during Months 1 to 3: IBS symptoms, One month: 16 (17) n (%)
  Number of months a subject was a responder during Months 1 to 3: IBS symptoms, Three months: 46 (48) n (%)
  Number of months a subject was a responder during Months 1 to 3: IBS symptoms, Two months: 16 (17) n (%)
  Number of months a subject was a responder during Months 1 to 3: IBS symptoms, Zero months: 18 (19) n (%)
  Number of subjects who were responders during the 26-week treatment period: Adequate relief of IBS symptoms: 66 (69) n (%)
  Number of subjects who were responders during the 26-week treatment period: Adequate relief of abdominal pain/discomfort: 70 (73) n (%)
  Number of subjects who were responders during the 26-week treatment period: Adequate relief of abnormal bowel habits: 69 (72) n (%)
Each month of Months 1 to 3
  Responder rate, adequate relief of IBS symptoms: 150 (38) n (%)
  Responder rate, adequate relief of abdominal pain/discomfort: 159 (40) n (%)
  Responder rate, adequate relief of abnormal bowel habits: 165 (42) n (%)
Each month of Months 1 to 6
  Responder rate, adequate relief of IBS symptoms: 121 (31) n (%)
  Responder rate, adequate relief of abdominal pain/discomfort: 133 (34) n (%)
  Responder rate, adequate relief of abnormal bowel habits: 136 (34) n (%)
Each month of Months 4 to 6
  Responder rate, adequate relief of IBS symptoms: 193 (49) n (%)
  Responder rate, adequate relief of abdominal pain/discomfort: 202 (51) n (%)
